Measured values published in paper PMC6934184, “Selective DNA-PKcs inhibition extends the therapeutic index of localized radiotherapy and chemotherapy” (The Journal of Clinical Investigation, 2019).

Biological target: T1, SGKL (SGK3) (Homo sapiens, UniProt Q96BR1)
T1 construct: purchased Thermo Fisher Scientific (Life Technologies) SelectScreen
Assay: SelectScreen Z'LYTE
Assay type: biochemical
Summary of the method: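 Percent values come from Thermo SelectScreen profiling of NU5455, combining activity and binding assays. CSF1R was run in Z'LYTE format at Km app ATP, and CAMK1 in Adapta format with ATP listed at 10.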

T1 sequence (Q96BR1 whole entry): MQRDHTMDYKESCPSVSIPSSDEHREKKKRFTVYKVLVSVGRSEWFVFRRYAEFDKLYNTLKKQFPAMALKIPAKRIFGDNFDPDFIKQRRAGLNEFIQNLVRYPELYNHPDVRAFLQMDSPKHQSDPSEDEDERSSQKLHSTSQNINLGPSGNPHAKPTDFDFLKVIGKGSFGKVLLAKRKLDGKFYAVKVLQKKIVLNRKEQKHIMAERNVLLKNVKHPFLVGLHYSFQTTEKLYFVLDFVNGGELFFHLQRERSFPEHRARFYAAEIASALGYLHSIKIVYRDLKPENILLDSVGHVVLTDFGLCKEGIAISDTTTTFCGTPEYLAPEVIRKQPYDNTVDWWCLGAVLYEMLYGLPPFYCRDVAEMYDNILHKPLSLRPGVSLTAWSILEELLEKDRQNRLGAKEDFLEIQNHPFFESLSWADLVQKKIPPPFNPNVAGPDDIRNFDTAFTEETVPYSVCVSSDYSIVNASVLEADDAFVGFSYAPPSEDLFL

For CN(C(=O)CN1CCOCC1)c1ccc2sc3c(-c4cccc5c(=O)cc(N6CC7CCC(C6)O7)oc45)cccc3c2c1 [NU5455], the inhibition at 1 µM was -4.6%.
